Results as given in US11965159B2, “Compositions and methods for regulating proteins and nucleic acids activities” (THE BROAD INSTITUTE, INC., priority 2019, dated 2024).

How the values were obtained:
SpCas9 = SpCas9 (Streptococcus pyogenes serotype M1, UniProt Q99ZW2); assay: Cas9 nuclease activity in EGFP disruption assay in U2OS.eGFP.PEST cells; format: cell-based; design: host or cells: U2OS.eGFP-PEST; conditions: 10, 15, 20 μM, 24 h
Method: Cas9 Nuclease activity in EGFP disruption assay. Approximately 200,000 U2OS.eGFP-PEST cells were nucleofected with 400 ng of SpCas9 (Addgene Plasmid #43861) and 40 ng of sgRNA (pFYF1320 EGFP Site #1, Addgene Plasmid #47511) expressing plasmids along with a Td-tomato-encoding plasmid using the SE Cell Line 4D-Nucleofector™ X Kit (Lonza™) according to the manufacturer's protocol. Approximately 20,000 transfected cells/well in 3 replicates were plated in a 96-well plate (Corning® 3904). Cells were allowed to grow in the indicated amount of compound or DMSO for 24 h post transfection. Cells were then fixed using 4% paraformaldehyde and imaged with the HCS NuclearMask™ Blue Stain (Life Technologies™) as the nuclear counter-staining agent. Imaging was performed with an IXM 137204 ImageXpress® Automated High Content Microscope (Molecular Devices™) at 10× magnification under three excitation channels (blue, green and red) with 9 acquiring sites per well. Images were analyzed in the MetaXpress® software and data were plotted using GraphPad Prism 6. The Z′-value was calculated following the formula: […]
Cas9 Nuclease activity in EGFP disruption assay. In some embodiments, a quantitative human cell-based reporter assay that enables rapid quantitation of targeted nuclease activities is used to characterize off-target cleavage of CRISPR protein-based RNA guided endonucleases. In this assay, the activities of nucleases targeted to a single integrated EGFP reporter gene can be quantified by assessing loss of fluorescence signal in human U2OS.EGFP cells caused by inactivating frameshift insertion/deletion (indel) mutations introduced by error prone non-homologous end-joining (NHEJ) repair of nuclease-induced double-stranded breaks (DSBs).
Approximately 200,000 U2OS.eGFP-PEST cells were nucleofected with 400 ng of SpCas9 (Addgene Plasmid #43861) and 40 ng of sgRNA (pFYF1320 EGFP Site #1, Addgene Plasmid #47511) expressing plasmids along with a Td-tomato-encoding plasmid using the SE Cell Line 4D-Nucleofector™ X Kit (Lonza™) according to the manufacturer's protocol. […]

SpCas9:gRNA complex = biological target: T1, SpCas9:gRNA complex (Streptococcus pyogenes serotype M1, UniProt Q99ZW2); assay: Compound-Cas9 interaction in Bio-Layer Interferometry (BLI); format: binding; conditions: excess (10×) of biotin to BRD7087 loading
T1 construct: His6 (N, cleaved yes); made in house; host or cells: E. coli BL21 Star (DE3)
Method: Compound-Cas9 interaction in BLI. The experiments were performed in a 96-well format with 180 μL reaction volume using biotinylated compound BRD7087-Biotin and streptavidin sensors. 1 μM of the biotinylated compound was loaded onto the sensors for 180s in 20 mM Tris buffer of pH 7.4, 100 mM KCl, 5 mM MgCl2, 1 mM DTT, 0.01% Tween. The compound loaded sensors were then allowed to associate with the different concentration of SpCas9:gRNA complex (1-0.15 μM) for 300s followed by dissociation in the reaction buffer. Reference sensor was loaded with compound and allowed to associate and dissociate in the reaction buffer alone. The response curves were fitted with a 2:1 stoichiometric model and a global fit steady-state analysis were performed using manufacturer inbuilt protocol. The experiment was performed in three replicates.
The competitive experiments were performed using Biotin-linker fragment. In this experiment, streptavidin sensors were pre-incubated with 10 μM of Biotin-linker before dipping into a solution of either 1 μM BRD7087-Biotin or reaction buffer alone. Sensors were then allowed to associate with different concentration of SpCas9:gRNA complex or buffer alone.
Compound-Cas9 interaction in BLL The experiments were performed in a 96-well format with 180 μL reaction volume using biotinylated compound BRD7087-Biotin and streptavidin sensors. […]

SpCas9, sequence (Q99ZW2 whole entry): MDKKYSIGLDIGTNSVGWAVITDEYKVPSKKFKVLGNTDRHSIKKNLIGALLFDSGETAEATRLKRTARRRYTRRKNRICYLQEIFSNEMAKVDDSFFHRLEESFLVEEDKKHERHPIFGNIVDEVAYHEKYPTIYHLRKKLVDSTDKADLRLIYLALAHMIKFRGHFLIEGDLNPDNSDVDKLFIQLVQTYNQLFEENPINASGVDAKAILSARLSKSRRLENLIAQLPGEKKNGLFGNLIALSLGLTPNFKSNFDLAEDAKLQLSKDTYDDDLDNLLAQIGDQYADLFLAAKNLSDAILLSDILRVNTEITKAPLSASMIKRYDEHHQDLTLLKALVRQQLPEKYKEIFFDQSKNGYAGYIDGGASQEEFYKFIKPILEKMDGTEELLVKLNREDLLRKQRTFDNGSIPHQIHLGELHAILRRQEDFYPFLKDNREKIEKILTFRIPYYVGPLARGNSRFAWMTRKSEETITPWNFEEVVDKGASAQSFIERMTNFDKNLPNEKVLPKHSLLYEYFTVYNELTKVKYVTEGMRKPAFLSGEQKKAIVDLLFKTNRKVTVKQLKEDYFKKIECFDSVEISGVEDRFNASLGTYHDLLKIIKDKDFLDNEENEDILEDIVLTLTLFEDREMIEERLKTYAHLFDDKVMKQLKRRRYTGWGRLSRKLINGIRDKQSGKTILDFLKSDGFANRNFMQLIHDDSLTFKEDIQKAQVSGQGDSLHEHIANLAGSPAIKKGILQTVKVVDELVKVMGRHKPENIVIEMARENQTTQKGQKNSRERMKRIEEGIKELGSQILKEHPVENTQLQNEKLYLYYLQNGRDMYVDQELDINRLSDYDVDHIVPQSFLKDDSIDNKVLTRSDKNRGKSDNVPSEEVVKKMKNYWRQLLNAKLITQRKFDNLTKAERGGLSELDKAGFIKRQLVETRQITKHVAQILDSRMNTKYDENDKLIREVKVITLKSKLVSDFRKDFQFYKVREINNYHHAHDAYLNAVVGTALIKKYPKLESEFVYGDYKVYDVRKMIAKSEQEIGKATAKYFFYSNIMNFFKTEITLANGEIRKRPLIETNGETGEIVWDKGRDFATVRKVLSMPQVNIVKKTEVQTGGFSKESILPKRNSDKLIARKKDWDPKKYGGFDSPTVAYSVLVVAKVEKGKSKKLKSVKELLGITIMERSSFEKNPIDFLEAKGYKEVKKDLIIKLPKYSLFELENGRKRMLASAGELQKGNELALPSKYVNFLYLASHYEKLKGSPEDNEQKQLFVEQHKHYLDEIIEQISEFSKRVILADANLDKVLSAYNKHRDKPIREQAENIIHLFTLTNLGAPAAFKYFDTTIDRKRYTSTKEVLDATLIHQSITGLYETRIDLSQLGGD
T1 sequence (Q99ZW2 whole entry, one chain of several): as the sequence (Q99ZW2 whole entry) above

SMILES	potency of stereoisomers in EGFP-disruption assay relative to BRD7087 / BRD5779 (SpCas9)	BLI response signal in competitive experiment (SpCas9:gRNA complex)
OC[C@H]1Nc2ccc(-c3cccc(F)c3)cc2[C@@H]2[C@H]1CCN2Cc1ccncc1 [BRD0750, ((3aS,4S,9bS)-8-(3-Fluorophenyl)-1-(pyridin-4-ylmethyl)-2,3,3a,4,5,9b-hexahydro-1H-pyrrolo[3,2-c]quinolin-4-yl)methanol]	less potent	–
OC[C@@H]1Nc2ccc(-c3cccc(F)c3)cc2[C@H]2[C@@H]1CCN2Cc1ccncc1 [BRD2161, ((3aR,4R,9bR)-8-(3-Fluorophenyl)-1-(pyridin-4-ylmethyl)-2,3,3a,4,5,9b-hexahydro-1H-pyrrolo[3,2-c]quinolin-4-yl)methanol]	less potent	–
OC[C@@H]1Nc2ccc(-c3cccc(F)c3)cc2[C@@H]2[C@H]1CCN2Cc1ccncc1 [BRD5039, ((3aS,4R,9bS)-8-(3-Fluorophenyl)-1-(pyridin-4-ylmethyl)-2,3,3a,4,5,9b-hexahydro-1H-pyrrolo[3,2-c]quinolin-4-yl)methanol]	equipotent as BRD7087	–
O=C(CCCC[C@@H]1SC[C@@H]2NC(=O)N[C@@H]21)NCCOCCOCCOCCC(=O)Nc1cccc(-c2ccc3c(c2)[C@H]2[C@H](CCN2Cc2ccncc2)[C@@H](CO)N3)c1 [biotin-conjugate of BRD7087, N-(2-(2-(2-(3-((3-((3aR,4S,9bR)-4-(Hydroxymethyl)-1-(pyridin-4-ylmethyl)-2,3,3a,4,5,9b-hexahydro-1H-pyrrolo[3,2-c]quinolin-8-yl)phenyl)amino)-3-oxopropoxy)ethoxy)ethoxy)ethyl)-5-((3aS,4S,6aR)-2-oxohexahydro-1H-thieno[3,4-d]imidazol-4-yl)pentanamide]	–	no substantial response signal
